Test results reported in publication PMC7013346, “Bioaccessibility and Pharmacokinetics of a Commercial Saffron (Crocus sativus L.) Extract” (Evidence-based Complementary and Alternative Medicine : eCAM, 2020).
Like-named read-outs stand apart in the source and are kept apart here. Marks after values point to notes of the source that are not given here.

What was measured:
[1] = Abiotic in vitro digestion (salivary, gastric, duodenal steps) of affron® tablets, HPLC-PAD/MS quantification; type: in vitro ADME; conditions: for Bioactive molecule content, initial sample: affron® before in vitro digestion; for Bioactive molecule content, initial sample / Bioactive molecule content, digested sample, duodenal / Bioactive molecule content, digested sample, gastric / Bioactive molecule content, digested sample, salivary: mean ± SD; for Bioactive molecule content, digested sample, duodenal: after duodenal step, 150 min, pH 7, 37°C, pancreatin and bile extract; for Bioactive molecule content, digested sample, gastric: after gastric step, 90 min, pH 2, 37°C, pepsin; for Bioactive molecule content, digested sample, salivary: after salivary step, 5 min, pH 6.9, 37°C, α-amylase; for Bioaccessibility: after whole in vitro digestion of affron® tablets, relative to initial content
Procedure: Briefly, the salivary step runs for 5 min at pH 6.9 and 37°C, under aerobic conditions with 3.9 units α-[…]. Then, the samples were transferred for 90 min to the gastric step at pH 2 and 37°C with 71.2 units pepsin/ml under anaerobic conditions. Finally, the duodenal step was set for 150 min at pH 7 and 37°C, with 9.2 mg pancreatin/ml and 55.2 mg bile extract/ml under anaerobic conditions. Samples were taken from every steps and were centrifuged at 7000 g for 40 min at 4°C. […] All samples were analysed at least in duplicate. High-performance liquid chromatography (HPLC) analysis of bioactive components from initial and digested saffron extract was performed using an Agilent Technologies 1220 Infinity series system equipped with a photodiode array detector (PAD) according to Kell et al., while the analysis of crocetin was according to Umigai et al.. […] To estimate the percentage of bioaccessibility of the main bioactive compounds of affron®, an equation was used according to Ordoudi et al.

[2] = Single-dose pharmacokinetics of crocetin in plasma after oral affron® tablets in healthy volunteers; type: in vivo, human; conditions: for Detection in plasma after affron® intake: human plasma, 0.5-3 h and 24 h after 56 or 84 mg affron®, HPLC
Procedure: A single dose, randomized, double blinded study was used to evaluate the pharmacokinetics of two different saffron doses (56 mg and 84 mg). The randomization code was generated by Random Allocation Software, sealed envelope (London, UK). Enrolled participants were then allocated to one of two groups: group 1: consumed 4 × 14 mg of affron® tablets (56 mg single dose); group: 2 : 6 × 14 mg of affron® tablets (84 mg single dose).
The subjects of the pharmacokinetics were adult male (n = 5) and female (n = 8; nonpregnant and nonlactating) healthy volunteers of 18–30 years age. All participants self-reported to be in normal physical health (BMI < 30) and passed the exclusion screening. Exclusion criteria included suffering clinically significant medical condition, such as, but not limited to, cardiovascular, neurological, psychiatric, renal, immunological, endocrine (including uncontrolled diabetes or thyroid disease), or uncontrolled haematological abnormalities. Other exclusion criteria were the use within the past 3 months of the tested compounds and/or antioxidants; no current use of prescription medications except the oral contraceptive pill in women; and known allergy to any tested compound and/or antioxidant.
All participants were advised to fast from 10 : 00 pm prior to the study until the collection of the first blood sample. Fasting was broken immediately after dosing the corresponding tablets. At time 0 h and at 4 h after dosing, balanced breakfasts (410 kcal, approximately 30% of them from fats) and lunches (625 kcal, approximately 30% from fats) were served at the center. The meals were poor in carotenoids. Subjects remained onsite for the full first 6 hours of sample collection and returned to the center again for the 24 h samples. Subjects were monitored and asked to report any possible side-effects experienced due to intake of the tablets during the whole 24 h time after the intake of the tablets.
For crocetin pharmacokinetic analysis, blood samples (3 ml collected into tubes with EDTA) were drawn prior to affron® supplementation (time 0 h), between time 30 and 180 min at every 30 min and 24 h after supplementation. The blood tubes were briefly mixed by inversion and put on ice and centrifuged (600 g, 4°C for 10 min) to separate the plasma. The EDTA-plasma of every sample was carefully removed in 3 aliquots (500 μl each) and stored at −20°C for less than 48 h before being finally transported and stored at −80°C.
Plasma samples were extracted based on the method described and validated by Mohammadpour et al.. Briefly, plasma samples were thawed to room temperature. Then, 20 μl of an internal standard solution of 13-cis-retinoic acid and 120 μl acetonitrile were added to 100 μl of sample. The samples tubes were capped and vortexed for 10 s and put on ice for 5 min. The samples were then gently rotated for 10 minutes before centrifuging at 12000 g for 10 min. The supernatant was collected and analysed by HPLC.
The efficiency of the extraction process was estimated by the measure of the residual amount of the internal standard, and 13-cis-retinoic acid was recovered after the analysis. The recovery percentage was then applied to the results to calculate the true concentration of crocetin in the samples.
The chromatogram of a sample of pure standard crocetin and its typical absorption wavelength were used to identify and confirm the crocetin peak in every analysis, as shown in Mohammadpour et al..
The crocetin concentration in biological samples was calculated using a standard linear curve at several crocetin concentration and the Shimadzu software for chromatogram analysis. All samples fell within the range of the linear standard curve (concentration (μg/ml) = (AUC + 131.56)/9475). The intra-assay precision CV was 4.8%, and the interassay variability and precision CV were 7.3%, with a blood detection limit of 0.05 μg/ml.
Pharmacokinetic parameters were derived using GraphPad Prism 7.0 (California, USA). […]

[3] = parameters: method as in PMID 21112749; conditions: human, single oral dose of 22.5 mg of crocetin from G. jasminoides; cited from earlier work
[4] = parameters: method as in PMID 23638292; conditions: human, single oral dose of 16 mg of saffron crocetins; cited from earlier work

| Reduction of content during gastric digestion ([1]; acid-pepsin environment, gastric step) | Bioactive molecule content, initial sample [1] | Bioactive molecule content, digested sample, duodenal [1] | Bioactive molecule content, digested sample, gastric [1] | Bioactive molecule content, digested sample, salivary [1] | Bioaccessibility [1] | Change of concentration over the whole in vitro digestion process vs initial composition ([1]; salivary, stomach and duodenal steps) | half-life ([2]; both sexes, plasma, crocetin after oral affron® tablets, human, dose not separated, read-out: Plasmatic half-life (converted)) | Clearance ([2]; crocetin after oral affron® tablets, human, dose not separated) | Time after administration at which plasma crocetin fell to the HPLC-PAD quantification limit / ceased to be detected ([2]; human, 56 or 84 mg affron®) | Crocetin concentration in plasma 24 h after affron® intake ([2]; human, 24 h, detection limit 0.05 μg/ml) | Decrease of content after the digestion process ([1]; whole in vitro digestion vs initial conditions) | Detection in plasma after affron® intake ([2]; listed as picrocrocin) | Bioactive molecule content, initial sample ([1]; listed as safranal) | Bioactive molecule content, digested sample, duodenal ([1]; listed as safranal) | Increase of content after the digestion process vs initial concentration ([1]; whole in vitro digestion) | Detection in plasma after affron® intake ([2]; listed as safranal) | Compound | Cmax [3] | Cmax [4] | Detection in plasma after affron® intake [2] |
| --- | --- | --- | --- | --- | --- | --- | --- | --- | --- | --- | --- | --- | --- | --- | --- | --- | --- | --- | --- | --- |
| 84% | 1.66 ± 0.04^b %, dry basis | 0.20 ± 0.04^a %, dry basis | 0.26 ± 0.03^a %, dry basis | 1.11 ± 0.43^b %, dry basis | 12.05% |  |  |  |  |  |  |  |  |  |  |  | CC(/C=C/C=C(\C)C(=O)O[C@@H]1O[C@H](CO[C@@H]2O[C@H](CO)[C@@H](O)[C@H](O)[C@H]2O)[C@@H](O)[C@H](O)[C@H]1O)=C\C=C\C=C(C)\C=C\C=C(/C)C(=O)O[C@@H]1O[C@H](CO[C@@H]2O[C@H](CO)[C@@H](O)[C@H](O)[C@H]2O)[C@@H](O)[C@H](O)[C@H]1O (relative stereo) [t-crocin-4, trans-crocin-4] |  |  |  |
|  | 0.04 ± 0.01^a %, dry basis | 0.08 ± 0.01^b %, dry basis | 0.21 ± 0.01^c %, dry basis | 0.03 ± 0.00^a %, dry basis | 200.00% |  |  |  |  |  |  |  | 0.04 %, dry basis | 0.08 %, dry basis | about 2 folds | not detected | CC1=C(C=O)C(C)(C)CC=C1 [Safranal] |  |  | not detected or appeared below the detection limit |

Further lines, the compound ahead of its results:

| Compound | Reduction of content during gastric digestion ([1]; acid-pepsin environment, gastric step) | Bioactive molecule content, initial sample [1] | Bioactive molecule content, digested sample, duodenal [1] | Bioactive molecule content, digested sample, gastric [1] | Bioactive molecule content, digested sample, salivary [1] | Bioaccessibility [1] | Change of concentration over the whole in vitro digestion process vs initial composition ([1]; salivary, stomach and duodenal steps) | half-life ([2]; both sexes, plasma, crocetin after oral affron® tablets, human, dose not separated, read-out: Plasmatic half-life (converted)) | Clearance ([2]; crocetin after oral affron® tablets, human, dose not separated) | Time after administration at which plasma crocetin fell to the HPLC-PAD quantification limit / ceased to be detected ([2]; human, 56 or 84 mg affron®) | Crocetin concentration in plasma 24 h after affron® intake ([2]; human, 24 h, detection limit 0.05 μg/ml) | Decrease of content after the digestion process ([1]; whole in vitro digestion vs initial conditions) | Detection in plasma after affron® intake ([2]; listed as picrocrocin) | Bioactive molecule content, initial sample ([1]; listed as safranal) | Bioactive molecule content, digested sample, duodenal ([1]; listed as safranal) | Increase of content after the digestion process vs initial concentration ([1]; whole in vitro digestion) | Detection in plasma after affron® intake ([2]; listed as safranal) | Cmax [3] | Cmax [4] | Detection in plasma after affron® intake [2] |
| --- | --- | --- | --- | --- | --- | --- | --- | --- | --- | --- | --- | --- | --- | --- | --- | --- | --- | --- | --- | --- |
| CC(/C=C/C=C(\C)C(=O)O)=C\C=C\C=C(C)\C=C\C=C(/C)C(=O)O [Crocetin] |  | 0.03 ± 0.01^a %, dry basis | 0.02 ± 0.01^a %, dry basis | 0.03 ± 0.01^a %, dry basis | 0.02 ± 0.01^a %, dry basis | 66.67% | did not increase | 51 ± 2.4 min | 2.70 ± 0.14 L/h | 3 h | below the detection limit |  |  |  |  |  |  | 280 ng/mL | 350 ng/mL |  |
| CC1=C(C=O)C(C)(C)CC(O[C@@H]2O[C@H](CO)[C@@H](O)[C@H](O)[C@H]2O)C1 (stereo partly drawn) [Picrocrocin, 4-(β-D-glucopyranosyloxy)-2,6,6-trimethyl-1-cyclohexene-1-carboxaldehyde] |  | 3.21 ± 0.07^c %, dry basis | 2.61 ± 0.05^b %, dry basis | 2.07 ± 0.02^a %, dry basis | 3.14 ± 0.11^c %, dry basis | 81.31% |  |  |  |  |  | 19% | not detected |  |  |  |  |  |  | absent |
| Kaempferol diglucoside |  | 0.13 ± 0.01^b,c %, dry basis | 0.09 ± 0.01^a %, dry basis | 0.12 ± 0.01^b %, dry basis | 0.14 ± 0.01^c %, dry basis | 69.23% |  |  |  |  |  |  |  |  |  |  |  |  |  |  |
